Key:
human FADS1 = target: T1, human FADS1 (Homo sapiens, UniProt O60427); experiment: In vitro FADS1 activity assay (HEK 293 cells with FADS1 BacMam, 13C5-DGLA substrate); format: cell-based; settings: in vitro human FADS1 activity assay
T1 construct: expressed in transfected cells; host or cells: HEK 293 cells transduced with FADS1 BacMam (MOI 25)
Description: HEK 293 cells in Dulbecco's Modified Eagle's medium (DMEM), 10% fetal bovine serum (FBS), 1× penicillin-streptomycin-glutamine (PSG) were mixed with FADS1 BacMam or FADS2 BacMam reagents at multiplicity of infection (MOI) ratio of 25 and plated in a in 96-well poly-D-lysine-coated plate. Plates were incubated in a 37° C., 5% CO2 for 24 hours. Cells were washed with DPBS and cells were incubated with 90 ml of compound dilution in DPBS at 5% CO2, 37° C. for 20 minutes. Ten L of the substrate, ^13C5-DGLA (FADS1), or 13C-LA (FADS2) diluted in DPBS were added to the cells and incubated at 5% CO2, 37° C. for 30 minutes (FADS1) or 45 minutes (FADS2). Cells were then washed with DPBS and 50 μL of 2N NaOH were added to each well and incubated in a 65° C. oven for 1 hour for the saponification reaction. […] Samples were then subjected to LC-MS/MS detection for the following analytes for the FADS1 reaction: ^13C5-DGLA and ^13C5-AA or the following analytes for the FADS2 reaction: ^13C18-LA, ^13C18-GLA, ^13C18-DGLA and ^13C18-AA. Samples were injected onto a Poroshell 120 EC-C18 3.0×50 mm, 1.9 um id column (Agilent, Santa Clara, CA).

mouse FADS1 = target: T2, mouse FADS1 (Mus musculus, UniProt Q920L1); experiment: Mouse FADS1 cell-based assay; settings: in vitro mouse FADS1 activity assay
T2 sequence (Q920L1 1-447): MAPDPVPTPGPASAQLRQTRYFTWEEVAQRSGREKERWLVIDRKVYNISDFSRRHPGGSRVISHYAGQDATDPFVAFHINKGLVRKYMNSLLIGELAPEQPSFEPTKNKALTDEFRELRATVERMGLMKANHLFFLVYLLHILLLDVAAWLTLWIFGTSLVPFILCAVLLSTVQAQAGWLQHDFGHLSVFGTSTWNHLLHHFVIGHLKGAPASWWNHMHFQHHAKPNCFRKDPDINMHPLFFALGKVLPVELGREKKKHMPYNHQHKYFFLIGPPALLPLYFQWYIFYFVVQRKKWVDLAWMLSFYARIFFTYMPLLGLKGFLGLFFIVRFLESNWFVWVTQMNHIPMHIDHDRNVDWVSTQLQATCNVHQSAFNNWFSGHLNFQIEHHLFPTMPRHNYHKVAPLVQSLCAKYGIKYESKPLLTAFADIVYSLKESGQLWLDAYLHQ
Description: (§1) HEK 293 cells in Dulbecco's Modified Eagle's medium (DMEM), 10% fetal bovine serum (FBS), 1× penicillin-streptomycin-glutamine (PSG) were mixed with FADS1 BacMam or FADS2 BacMam reagents at multiplicity of infection (MOI) ratio of 25 and plated in a in 96-well poly-D-lysine-coated plate. Plates were incubated in a 37° C., 5% CO2 for 24 hours. Cells were washed with DPBS and cells were incubated with […] of compound dilution in DPBS at 5% CO2, 37° C. for 20 minutes. Ten L of the substrate, ^13C5-DGLA (FADS1), or 13C-LA (FADS2) diluted in DPBS were added to the cells and incubated at 5% CO2, 37° C. for 30 minutes (FADS1) or 45 minutes (FADS2). Cells were then washed with DPBS and 50 μL of 2N NaOH were added to each well and incubated in a 65° C. oven for 1 hour for the saponification reaction. After cooling to room temperature, 22 μl of formic acid was added followed by the addition of 113 μl of acetonitrile with 1.5 μM ALA-d14 as the internal standard. Samples were then subjected to LC-MS/MS detection for the following analytes for the FADS1 reaction: ^13C5-DGLA and ^13C5-AA or the following analytes for the FADS2 reaction: ^13C18-LA, ^13C18-GLA, ^13C18-DGLA and ^13C18-AA. […]
(§2) The analyte peak areas were quantified by using the Analyst software (SCIEX, Framingham, MA). The percent of substrate to product conversion relative to untreated control were calculated (percent of control [POC]). […]

human FADS2 = target: T3, human FADS2 (Homo sapiens, UniProt O95864); experiment: In vitro FADS2 activity assay (HEK 293 cells with FADS2 BacMam, 13C-LA substrate); format: cell-based
T3 construct: expressed in transfected cells; host or cells: HEK 293 cells transduced with FADS2 BacMam (MOI 25)
T3 sequence (O95864 1-444): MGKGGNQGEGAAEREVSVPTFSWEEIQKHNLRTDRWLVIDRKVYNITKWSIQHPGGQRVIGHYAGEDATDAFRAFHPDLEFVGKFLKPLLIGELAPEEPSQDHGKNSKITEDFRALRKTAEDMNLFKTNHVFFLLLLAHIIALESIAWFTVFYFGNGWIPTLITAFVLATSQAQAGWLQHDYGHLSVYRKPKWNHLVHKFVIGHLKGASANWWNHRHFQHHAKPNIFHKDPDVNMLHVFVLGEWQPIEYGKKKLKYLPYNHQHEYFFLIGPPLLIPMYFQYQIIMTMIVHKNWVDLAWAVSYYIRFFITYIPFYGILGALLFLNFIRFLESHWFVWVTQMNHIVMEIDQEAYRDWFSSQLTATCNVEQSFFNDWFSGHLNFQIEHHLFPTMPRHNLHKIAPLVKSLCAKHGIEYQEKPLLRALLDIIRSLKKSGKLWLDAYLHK
Description: as §1, §2

FADS2 = target: T4, FADS2 (Mus musculus, UniProt Q9Z0R9); experiment: FADS2 inhibition by SC-26196 in DIO mice, plasma PUFA ratios; format: in vivo
T4 construct: from tissue; host or cells: living DIO mice; plasma GLA/LA and AA/DGLA ratios
T4 sequence (Q9Z0R9 1-444): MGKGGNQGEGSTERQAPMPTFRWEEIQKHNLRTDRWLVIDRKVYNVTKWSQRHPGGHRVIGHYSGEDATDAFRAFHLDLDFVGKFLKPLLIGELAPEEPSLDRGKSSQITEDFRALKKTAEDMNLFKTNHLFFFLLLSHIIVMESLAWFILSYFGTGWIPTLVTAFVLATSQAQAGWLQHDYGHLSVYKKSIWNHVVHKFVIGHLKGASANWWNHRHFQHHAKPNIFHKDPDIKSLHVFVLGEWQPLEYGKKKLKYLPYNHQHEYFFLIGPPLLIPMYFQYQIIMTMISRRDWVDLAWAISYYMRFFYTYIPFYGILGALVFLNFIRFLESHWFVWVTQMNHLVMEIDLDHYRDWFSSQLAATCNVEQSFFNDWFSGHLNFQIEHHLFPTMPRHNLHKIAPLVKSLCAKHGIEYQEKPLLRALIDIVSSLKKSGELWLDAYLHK
Description: FIG. 12 One-way ANOVA with Dunnett's test for multiple comparisons, *P<0.05, **P<0.01, ***P<0.001, ****P<0.0001.
Ten microliter of plasma or PUFA standards diluted in surrogate matrix (60 g/l bovine serum albumin in Dulbecco's phosphate-buffered saline [DPBS]) were mixed with 10 μl of ALA-d14 as the internal stand in a 96-well plate. 100 μl of 2N NaOH was added to the mixture for subsequent saponification at 65° C. for 1 hour. The mixture was then acidified with 50 μl of formic acid followed by two consecutive 500 μl hexane extractions. The organic extracts from the two extractions were combined and the solvent was evaporated under nitrogen gas. Extracts were then resuspended in 250 μl of 90% methanol and analyzed by liquid chromatography with tandem mass spectrometry (LC-MS/MS) for the following PUFAs: LA, GLA, DGLA, and AA, with ALA-d14 as the internal standard. The PUFA peak areas were quantified by using the Analyst software (SCIEX, Framingham, MA).

T1 sequence (O60427 whole entry): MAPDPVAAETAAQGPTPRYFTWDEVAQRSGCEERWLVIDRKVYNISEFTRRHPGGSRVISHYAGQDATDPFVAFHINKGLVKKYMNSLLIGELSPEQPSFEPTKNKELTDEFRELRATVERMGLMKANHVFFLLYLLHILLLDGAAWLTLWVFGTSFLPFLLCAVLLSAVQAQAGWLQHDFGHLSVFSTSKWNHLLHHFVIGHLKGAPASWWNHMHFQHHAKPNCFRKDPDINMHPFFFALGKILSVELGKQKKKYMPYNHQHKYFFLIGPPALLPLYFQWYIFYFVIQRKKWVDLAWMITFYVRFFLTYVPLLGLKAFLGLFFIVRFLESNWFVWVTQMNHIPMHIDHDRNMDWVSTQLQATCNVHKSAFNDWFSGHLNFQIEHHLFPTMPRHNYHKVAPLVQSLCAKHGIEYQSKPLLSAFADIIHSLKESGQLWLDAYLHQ

N#CC(CCCN1CCN(/N=C/c2cccnc2)CC1)(c1ccccc1)c1ccccc1 [SC-26196]
effect on FADS1 activity (human FADS1): does not affect FADS1 activity
effect on FADS1 activity (mouse FADS1): does not affect FADS1 activity
effect on FADS2 activity (human FADS2): FADS2 specific inhibitor
plasma AA/DGLA ratio (FADS2): increased
plasma GLA/LA ratio (FADS2): affects

— patent US20260183297A1, “SELECTION OF PATIENTS FOR THE TREATMENT OF FADS1-MEDIATED DISEASES OR DISORDERS USING FADS-1 INHIBITORS” (AMGEN INC., priority 2022, published 2026)
